Literature values in patent publication US20130101864A1, “Multifunctional Long-Acting Rust-Proof Film and Manufacturing Method Thereof” (Zhejiang Great Southeast Packaging Co., Ltd., priority 2010, published 2013).

Columns and labels:
[1] = no harmful physiological toxicity on human body

## c1ccc2[nH]nnc2c1 [Benzotriazole]
[1]
  toxicity: non-toxic
alcohol, benzene, toluene, chloroform and dimethylformamide
  solubility in organic solvents: soluble
water
  solubility in water: slightly soluble
